According to ChEMBL document CHEMBL1143251 (J Med Chem, 2008):
Active and inactive are the calls of the source. The calls are words filed in the database; no cut-off is given here.

Tests used:
[1] = Displacement of [3H]DTG from opioid sigma2 receptor in rat brain homogenate; assay type: tissue-based
[2] = organism: Rattus norvegicus; experiment: Ratio of Ki for rat sigma1 opioid receptor to Ki for rat sigma2 opioid receptor
[3] = molecular target: Sodium-dependent serotonin transporter (Rattus norvegicus, UniProt P31652); experiment: Displacement of [3H]paroxetine from serotonin transporter in rat brain homogenate; assay type: tissue-based
Chain of Sodium-dependent serotonin transporter (P31652 whole entry): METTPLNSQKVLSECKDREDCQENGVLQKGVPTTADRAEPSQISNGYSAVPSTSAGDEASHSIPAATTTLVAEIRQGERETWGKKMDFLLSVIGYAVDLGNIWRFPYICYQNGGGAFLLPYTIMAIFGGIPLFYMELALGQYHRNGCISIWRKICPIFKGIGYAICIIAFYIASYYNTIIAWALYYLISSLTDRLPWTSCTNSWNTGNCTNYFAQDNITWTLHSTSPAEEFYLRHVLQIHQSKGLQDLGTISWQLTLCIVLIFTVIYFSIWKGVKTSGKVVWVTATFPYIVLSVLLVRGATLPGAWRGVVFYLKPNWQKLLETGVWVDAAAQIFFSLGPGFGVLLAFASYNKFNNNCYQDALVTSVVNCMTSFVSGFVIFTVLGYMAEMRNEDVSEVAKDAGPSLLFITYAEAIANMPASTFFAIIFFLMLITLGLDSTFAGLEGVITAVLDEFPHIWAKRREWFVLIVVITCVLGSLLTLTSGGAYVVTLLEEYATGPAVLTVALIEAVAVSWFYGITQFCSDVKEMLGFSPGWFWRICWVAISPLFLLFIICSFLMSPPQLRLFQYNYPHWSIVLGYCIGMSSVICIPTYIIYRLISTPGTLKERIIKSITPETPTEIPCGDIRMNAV

[4] = Displacement of [3H]ketanserin from 5HT2 receptor in rat brain homogenate; assay type: tissue-based
[5] = Displacement of [3H]bremazocine from opioid receptor in rat brain homogenate; assay type: tissue-based
[6] = molecular target: Sodium-dependent dopamine transporter (Rattus norvegicus, UniProt P23977); experiment: Displacement of [3H]WIN-35428 from dopamine transporter in rat brain homogenate; assay type: tissue-based
Chain of Sodium-dependent dopamine transporter (P23977 whole entry): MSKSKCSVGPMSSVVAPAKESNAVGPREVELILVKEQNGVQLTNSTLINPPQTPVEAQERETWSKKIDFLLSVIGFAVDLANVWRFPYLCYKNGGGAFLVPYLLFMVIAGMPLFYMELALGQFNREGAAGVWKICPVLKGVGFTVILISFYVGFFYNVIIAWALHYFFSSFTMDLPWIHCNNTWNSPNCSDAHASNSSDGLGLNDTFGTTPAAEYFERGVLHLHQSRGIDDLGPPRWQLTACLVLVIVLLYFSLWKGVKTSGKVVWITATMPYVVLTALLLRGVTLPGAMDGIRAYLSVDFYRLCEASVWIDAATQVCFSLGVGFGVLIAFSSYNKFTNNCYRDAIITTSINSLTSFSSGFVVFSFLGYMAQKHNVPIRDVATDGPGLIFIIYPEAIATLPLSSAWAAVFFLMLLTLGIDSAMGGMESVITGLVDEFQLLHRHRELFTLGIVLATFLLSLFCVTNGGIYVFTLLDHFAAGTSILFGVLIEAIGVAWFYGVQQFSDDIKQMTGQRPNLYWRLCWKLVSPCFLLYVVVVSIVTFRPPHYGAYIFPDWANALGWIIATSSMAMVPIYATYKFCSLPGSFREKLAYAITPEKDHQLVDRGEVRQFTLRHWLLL

[7] = molecular target: Glutamate NMDA receptor; experiment: Displacement of [3H]TCP from NMDA receptor in rat brain homogenate; assay type: tissue-based
[8] = molecular target: Norepinephrine transporter (Rattus norvegicus, UniProt Q9WTR4); experiment: Displacement of [3H]nisoxetine from norepinephrine transporter in rat brain homogenate; assay type: tissue-based
Chain of Norepinephrine transporter (Q9WTR4 whole entry): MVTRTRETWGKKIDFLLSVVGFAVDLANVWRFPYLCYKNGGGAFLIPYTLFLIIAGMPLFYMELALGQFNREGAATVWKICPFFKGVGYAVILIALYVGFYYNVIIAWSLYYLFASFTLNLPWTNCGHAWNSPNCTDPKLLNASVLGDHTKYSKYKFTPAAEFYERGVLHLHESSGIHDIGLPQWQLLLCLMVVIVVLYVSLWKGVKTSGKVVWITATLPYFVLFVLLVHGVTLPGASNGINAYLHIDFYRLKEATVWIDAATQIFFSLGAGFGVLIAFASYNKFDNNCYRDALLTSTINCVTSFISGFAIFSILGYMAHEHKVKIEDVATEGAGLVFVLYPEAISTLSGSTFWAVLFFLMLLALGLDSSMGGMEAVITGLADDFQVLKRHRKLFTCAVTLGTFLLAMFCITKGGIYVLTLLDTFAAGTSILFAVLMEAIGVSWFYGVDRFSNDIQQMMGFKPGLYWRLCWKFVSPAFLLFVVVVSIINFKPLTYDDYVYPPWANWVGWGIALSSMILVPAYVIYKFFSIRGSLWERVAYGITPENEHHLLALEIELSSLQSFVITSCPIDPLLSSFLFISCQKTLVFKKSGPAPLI

[9] = molecular target: Sigma non-opioid intracellular receptor 1 (Rattus norvegicus, UniProt Q9R0C9); experiment: Displacement of [3H](+)-pentazocine from opioid sigma1 receptor in rat brain homogenate; assay type: tissue-based
Chain of Sigma non-opioid intracellular receptor 1 (Q9R0C9 whole entry): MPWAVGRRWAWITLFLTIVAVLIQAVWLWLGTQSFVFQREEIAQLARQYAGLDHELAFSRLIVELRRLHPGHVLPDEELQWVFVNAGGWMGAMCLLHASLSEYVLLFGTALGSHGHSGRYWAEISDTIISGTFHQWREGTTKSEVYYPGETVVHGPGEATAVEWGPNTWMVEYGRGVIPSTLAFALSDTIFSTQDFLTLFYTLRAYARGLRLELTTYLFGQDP

[10] = system: Mus musculus; experiment: Inhibition of cocaine-induced convulsions in ip dosed Swiss Webster mouse after 15 mins; assay type: functional, organism-based

| SMILES | Ki [1] | Ratio Ki [2] | also measured |
| --- | --- | --- | --- |
| O=c1sc2ccccc2n1CCCN1CCN(C2CCCCC2)CC1 | 3.05 nM | 1.84 |  |
| S=c1sc2ccccc2n1CCCCN1CCN(C2CCCCC2)CC1 | 0.55 nM | 2.33 | Ki [3]: 1400 nM; Ki [4]: 1330 nM; Ki [5]: > 10000 nM; Ki [6]: 1170 nM; Ki [7]: > 10000 nM; Ki [8]: > 10000 nM |
| O=c1sc2ccccc2n1CCN1CCN(C2CCCCC2)CC1 | 2.25 nM |  |  |
| CCCc1ccc2c(c1)sc(=O)n2CCN1CCCCCC1 | 831 nM | 0.00014 | Ki [9]: 0.12 nM; Activity [10]: Active |
| COc1cccc2c1CCCC2CCCN1CCN(C2CCCCC2)CC1 (configuration not stated) | 1.11 nM | 1.33 | Ki [9]: 1.48 nM |
| O=c1oc2ccccc2n1CCCCN1CCN(C2CCCCC2)CC1 | 1.83 nM | 6.15 |  |
| O=c1sc2ccccc2n1CCCCCN1CCN(C2CCCCC2)CC1 | 2.44 nM |  |  |
| O=c1sc2ccccc2n1CCCCCCN1CCN(C2CCCCC2)CC1 | 1.49 nM | 4.4 |  |

More lines, main results first:

| Ki [1] | Ratio Ki [2] | SMILES | also measured |
| --- | --- | --- | --- |
| 3.06 nM | 1.5 | O=c1oc2ccccc2n1CCCCCCN1CCN(C2CCCCC2)CC1 |  |
| 8.74 nM |  | O=c1oc2ccccc2n1CCCN1CCN(C2CCCCC2)CC1 |  |
| 0.39 nM |  | O=c1sc2ccccc2n1CCCCN1CCN(C2CCCCC2)CC1 |  |
| 5.89 nM | 1.79 | O=c1oc2ccccc2n1CCCCCN1CCN(C2CCCCC2)CC1 |  |
| 0.77 nM |  | S=c1oc2ccccc2n1CCCCN1CCN(C2CCCCC2)CC1 |  |
| 3.77 nM |  | c1ccc2oc(SCCCCN3CCN(C4CCCCC4)CC3)nc2c1 |  |
| 5.43 nM |  | O=c1oc2ccccc2n1CCN1CCN(C2CCCCC2)CC1 |  |
